Counter-ions that a name gives are not always drawn.
Columns and labels:
human C1 = target: T1, human C1 (Homo sapiens, UniProt P09871); experiment: Test, Code 026 (C1 inhibitor); type: biochemical; conditions: activity in wells, twofold serial dilution assay; higher well number indicates higher activity
T1 construct: hemolytic test of fluid-phase C2 destruction in presence of C4
Excerpt: (§1) An active inhibitor protects C2 from C1 and C4; (ii) Test, Code 035 (C3-C9 inhibitor)-This test determines the ability of the late components of human complement (C3-C9) to lyse EAC 142 in the presence of appropriate dilutions of the test compound. An active inhibitor protects EAC 142 from lysis by human C3-C9; (iii) Test, Code 036 (C-Shunt inhibitor)--In this test human erythrocytes rendered fragile are lysed in autologous serum via the shunt pathway activated by cobra venom factor in the presence of appropriate dilutions of the test compound. Inhibition of the shunt pathway results in failure of lysis; (iv) Forssman Vasculitis Test--Here, the well known complement dependent lesion, Forssman vasculitis, is produced in guinea pigs by intradermal injection of rabbit anti-Forssman antiserum. The lesion is measured in terms of diameter, edema and hemorrhage and the extent to which a combined index of these is inhibited by prior intraperitoneal injection of the test compound at 200 mg/kg is then reported, unless otherwise stated; (v) Forssman Shock Test--Lethal shock is produced in guinea pigs by an i.v. injection of anti-Forssman antiserum and the harmonic mean death time of treated guinea pigs is compared with that of simultaneous controls; (vi) Complement Level Reduction Test--In this test, the above dosed guinea pigs, or others, are bled for serum and the complement level is determined in undiluted serum by the capillary tube method of U.S. Pat. No. 3,876,376 and compared to undosed control guinea pigs; and (vii) Cap 50 Test--Here, appropriate amounts of the test compound are added to a pool of guinea pig serum in vitro, after which the undiluted serum capillary tube assay referred to above is run. The concentration of compound inhibiting 50% is reported.
(§2) With reference to Table I, guinea pigs weighing about 300 g were dosed intravenously (i.v.) or intraperitoneally (i.p.) with 200 mg/kg of the test compound dissolved in saline and adjusted to pH 7-8. […] Percent inhibition was calculated by comparison with simultaneous controls. […]

whole complement = experiment: In vivo complement inhibition in dosed guinea pigs (whole complement, capillary tube assay); conditions: i.p., 200 mg/kg
Excerpt: as §1
With reference to Table I, guinea pigs weighing about 300 g were dosed intravenously (i.v.) or intraperitoneally (i.p.) with 200 mg/kg of the test compound dissolved in saline and adjusted to pH 7-8. One hour after dosing, the guinea pigs were decapitated, blood was collected and the serum separated. The serum was tested for whole complement using the capillary tube assay. Percent inhibition was calculated by comparison with simultaneous controls. The results appear in Table I together with results of tests, code 026, 035, 036, Cap 50, % inhibition and Forssman shock.

shunt pathway = experiment: Test, Code 036 (C-Shunt inhibitor): lysis of human erythrocytes via shunt pathway activated by cobra venom factor; type: cell-based; conditions: activity in wells, twofold serial dilution assay; higher well number indicates higher activity
Excerpt: as §1, §2

[1] = system: late components of human complement (C3-C9); experiment: Test, Code 035 (C3-C9 inhibitor): lysis of EAC 142; type: cell-based; conditions: activity in wells, twofold serial dilution assay; higher well number indicates higher activity
Excerpt: as §1, §2

complement system = conditions: British Journal of Experimental Pathology, 33, 327-339 (1952); Clin. Exp. Immunol., 10, 127-138 (1972); cited from earlier work
[2] = system: hereditary angioneurotic edema; conditions: The New England Journal of Medicine, 286, 808-812 (1972); cited from earlier work
human serum complement [3] = conditions: as judged by the reduction in total hemolytic complement activity, Pathologie Biologie, 25, 33-36 (1977); cited from earlier work
human serum complement [4] = conditions: as judged by the reduction in total hemolytic complement activity, Pathologie Biologie, 25, 33-36 (1977); cited from earlier work; remark: listed apart in the source

T1 sequence (P09871 16-688): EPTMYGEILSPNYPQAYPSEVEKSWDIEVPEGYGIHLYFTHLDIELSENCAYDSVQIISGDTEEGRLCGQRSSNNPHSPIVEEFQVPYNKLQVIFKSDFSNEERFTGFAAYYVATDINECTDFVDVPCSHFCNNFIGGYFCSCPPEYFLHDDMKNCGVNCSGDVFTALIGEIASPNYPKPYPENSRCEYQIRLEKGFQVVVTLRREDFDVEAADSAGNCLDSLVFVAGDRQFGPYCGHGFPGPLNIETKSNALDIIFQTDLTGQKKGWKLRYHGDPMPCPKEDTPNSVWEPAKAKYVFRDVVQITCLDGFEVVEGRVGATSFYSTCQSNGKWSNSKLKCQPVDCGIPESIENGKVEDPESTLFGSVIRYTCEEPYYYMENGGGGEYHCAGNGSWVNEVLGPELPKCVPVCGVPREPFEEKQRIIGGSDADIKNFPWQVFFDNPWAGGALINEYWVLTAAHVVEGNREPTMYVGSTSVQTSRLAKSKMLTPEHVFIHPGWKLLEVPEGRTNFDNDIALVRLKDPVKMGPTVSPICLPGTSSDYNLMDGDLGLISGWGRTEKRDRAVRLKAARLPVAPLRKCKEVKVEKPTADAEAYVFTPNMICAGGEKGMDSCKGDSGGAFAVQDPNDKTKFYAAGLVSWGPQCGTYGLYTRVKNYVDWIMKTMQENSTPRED
T1 sequence (P00736 18-705 partner): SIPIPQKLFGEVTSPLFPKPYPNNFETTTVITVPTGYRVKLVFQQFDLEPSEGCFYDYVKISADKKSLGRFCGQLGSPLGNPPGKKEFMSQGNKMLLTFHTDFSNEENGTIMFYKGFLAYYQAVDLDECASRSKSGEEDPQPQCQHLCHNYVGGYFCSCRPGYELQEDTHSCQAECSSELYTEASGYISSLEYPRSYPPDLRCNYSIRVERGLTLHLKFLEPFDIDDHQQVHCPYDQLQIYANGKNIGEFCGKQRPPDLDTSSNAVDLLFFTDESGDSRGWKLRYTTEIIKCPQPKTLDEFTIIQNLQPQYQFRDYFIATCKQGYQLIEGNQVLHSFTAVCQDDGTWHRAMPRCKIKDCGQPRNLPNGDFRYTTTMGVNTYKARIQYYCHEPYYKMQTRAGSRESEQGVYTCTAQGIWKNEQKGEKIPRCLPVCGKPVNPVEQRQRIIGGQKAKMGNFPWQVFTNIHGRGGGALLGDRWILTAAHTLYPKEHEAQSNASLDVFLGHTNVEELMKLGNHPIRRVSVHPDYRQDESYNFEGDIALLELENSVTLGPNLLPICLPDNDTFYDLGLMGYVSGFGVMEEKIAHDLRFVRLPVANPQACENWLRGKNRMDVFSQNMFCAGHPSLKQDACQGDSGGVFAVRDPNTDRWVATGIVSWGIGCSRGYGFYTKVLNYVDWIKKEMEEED
T1 sequence (P02745 23-245 partner): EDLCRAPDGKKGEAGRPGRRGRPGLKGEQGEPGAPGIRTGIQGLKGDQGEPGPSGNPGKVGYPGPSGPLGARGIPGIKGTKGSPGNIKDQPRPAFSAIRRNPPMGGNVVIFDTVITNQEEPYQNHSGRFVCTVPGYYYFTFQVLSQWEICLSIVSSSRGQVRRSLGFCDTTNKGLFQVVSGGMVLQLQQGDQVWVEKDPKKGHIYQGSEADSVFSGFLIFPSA
T1 sequence (P02746 28-253 partner): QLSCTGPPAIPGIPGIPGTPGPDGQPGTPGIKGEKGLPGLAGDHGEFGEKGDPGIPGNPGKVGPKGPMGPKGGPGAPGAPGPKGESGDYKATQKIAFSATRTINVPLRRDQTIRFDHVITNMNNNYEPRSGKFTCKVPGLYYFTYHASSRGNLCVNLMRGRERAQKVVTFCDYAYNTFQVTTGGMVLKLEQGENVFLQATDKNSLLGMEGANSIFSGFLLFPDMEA
T1 sequence (P02747 29-245 partner): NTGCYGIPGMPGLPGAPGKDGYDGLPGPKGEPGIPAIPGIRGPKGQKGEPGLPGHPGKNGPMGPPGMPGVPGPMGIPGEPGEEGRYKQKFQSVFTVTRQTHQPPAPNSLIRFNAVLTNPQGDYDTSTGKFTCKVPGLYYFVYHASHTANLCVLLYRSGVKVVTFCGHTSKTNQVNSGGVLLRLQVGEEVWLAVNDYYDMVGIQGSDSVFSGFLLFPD

Compound | C1 026* Wells (human C1) | In Vivo Activity (Guinea Pig) % Inhibition, Intraperitoneal, 30 minutes (whole complement) [%] | In Vivo Activity (Guinea Pig) % Inhibition, Intraperitoneal, 60 minutes (whole complement) [%] | In Vivo Activity (Guinea Pig) % Inhibition, Intraperitoneal, 120 minutes (whole complement) [%] | Shunt Inhibition 036* Wells (shunt pathway) | C-Late 035* Wells [1] | effect on the complement system (complement system) | treatment of hereditary angioneurotic edema [2] | further results
O=C(Nc1cc(C(=O)Nc2cc(C(=O)O)cc(C(=O)Nc3ccc(S(=O)(=O)O)c4cc(S(=O)(=O)O)cc(S(=O)(=O)O)c34)c2)cc(C(=O)Nc2cc(C(=O)O)cc(C(=O)Nc3ccc(S(=O)(=O)O)c4cc(S(=O)(=O)O)cc(S(=O)(=O)O)c34)c2)c1)Nc1cc(C(=O)Nc2cc(C(=O)O)cc(C(=O)Nc3ccc(S(=O)(=O)O)c4cc(S(=O)(=O)O)cc(S(=O)(=O)O)c34)c2)cc(C(=O)Nc2cc(C(=O)O)cc(C(=O)Nc3ccc(S(=O)(=O)O)c4cc(S(=O)(=O)O)cc(S(=O)(=O)O)c34)c2)c1 [3,3',3",3'"-{Ureylenebis[s-phenenylbis(carbonylimino]}tetrakis[5-(4,6,8-trisulfo-1-naphthyl)carbamoyl]benzoic acid dodecasodium salt] | +7 Wells | -90 | -94 | -89 | +5 Wells | +2 Wells |  |  | 
Nc1cc(C(=O)Nc2cc(C(=O)O)cc(C(=O)Nc3ccc(S(=O)(=O)O)c4cc(S(=O)(=O)O)cc(S(=O)(=O)O)c34)c2)cc(C(=O)Nc2cc(C(=O)O)cc(C(=O)Nc3ccc(S(=O)(=O)O)c4cc(S(=O)(=O)O)cc(S(=O)(=O)O)c34)c2)c1 [3,3'-[5-Amino-m-phenylenebis(carbonylimino)]bis{5-[4,6,8-trisulfo-1-naphthyl)carbamoyl]}benzoic acid hexasodium salt] | +4 Wells | -40 | -61 | -61 | +2 Wells | +2 Wells |  |  | 
Cc1ccc(C(=O)Nc2ccc(S(=O)(=O)O)c3cc(S(=O)(=O)O)cc(S(=O)(=O)O)c23)cc1NC(=O)c1cc(NC(=O)Nc2cc(C(=O)Nc3cc(C(=O)Nc4ccc(S(=O)(=O)O)c5cc(S(=O)(=O)O)cc(S(=O)(=O)O)c45)ccc3C)cc(C(=O)Nc3cc(C(=O)Nc4ccc(S(=O)(=O)O)c5cc(S(=O)(=O)O)cc(S(=O)(=O)O)c45)ccc3C)c2)cc(C(=O)Nc2cc(C(=O)Nc3ccc(S(=O)(=O)O)c4cc(S(=O)(=O)O)cc(S(=O)(=O)O)c34)ccc2C)c1 [8,8',8",8'"-{Ureylenebis{s-phenenylbis[carbonylimino(4-methyl-3,1-phenylene)carbonylimino]}}tetra-1,3,5-naphthalenetrisulfonic acid dodecasodium salt] | +6 Wells | -62 | -84 | -95 | +4 Wells | +3 Wells |  |  | 
Cc1ccc(C(=O)Nc2ccc(S(=O)(=O)O)c3cc(S(=O)(=O)O)cc(S(=O)(=O)O)c23)cc1NC(=O)c1cccc(NC(=O)Nc2cccc(C(=O)Nc3cc(C(=O)Nc4ccc(S(=O)(=O)O)c5cc(S(=O)(=O)O)cc(S(=O)(=O)O)c45)ccc3C)c2)c1 [Suramin] |  |  |  |  |  |  | competitive inhibitor of the complement system | used with success | 
Nc1ccc2cc(S(=O)(=O)O)cc(O)c2c1N=Nc1ccc(NC(=O)Nc2ccc(N=Nc3c(N)ccc4cc(S(=O)(=O)O)cc(O)c34)c(S(=O)(=O)O)c2)cc1S(=O)(=O)O [chlorazol fast pink, 3,3'-ureylenebis-[6-(2-amino-8-hydroxy-6-sulfo-1-naphthylazo)]benzenesulfonic acid, tetrasodium salt] |  |  |  |  |  |  | anticomplementary effect |  | 
NCCCCCC(=O)O [epsilon-aminocaproic acid] |  |  |  |  |  |  |  | used with success | 
NC[C@H]1CC[C@H](C(=O)O)CC1 [tranexamic acid] |  |  |  |  |  |  |  | used with success | 
heparin |  |  |  |  |  |  | anticomplementary effect |  | 
pentosan-poly-sulfoester |  |  |  |  |  |  |  |  | anticomplementary activity on human serum in vitro (human serum complement [3]): anticomplementary activity; anticomplementary activity on human serum in vivo (human serum complement [4]): anticomplementary activity

Source: patent publication US4218395A, “Ureylene naphthalene sulfonic acids” (American Cyanamid Company, priority 1978, dated 1980)
